According to patent US10940139B2, “Compounds that interact with the Ras superfamily for the treatment of cancers, inflammatory diseases, rasopathies, and fibrotic disease” (Shy Therapeutics LLC, priority 2017, dated 2021):
Read-outs that look alike come from different tables or passages of the source.

Experiments:
Assay in all cases: Ras GTP binding domain inhibition assay (labeled GTP)
[1] = target: KRas G12C/Q61H double mutant (Homo sapiens (Human), UniProt P01116, G12C/Q61H); settings: 20 μM compound
KRas G12C/Q61H double mutant, sequence (P01116-2 other isoform, or with tags, fused parts or gaps G12C/Q61H): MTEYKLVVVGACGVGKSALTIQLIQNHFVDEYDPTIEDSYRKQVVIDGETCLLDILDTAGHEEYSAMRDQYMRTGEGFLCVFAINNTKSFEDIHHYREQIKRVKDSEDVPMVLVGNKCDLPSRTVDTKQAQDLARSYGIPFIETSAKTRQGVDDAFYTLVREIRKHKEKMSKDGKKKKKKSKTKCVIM
Outline: (§1)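 Fluorescence read-out of Cy3-/Cy5-GTP remaining bound to nickel-immobilized His-KRas after washes. Protein was coated overnight at 4° C, then exposed to compound for 3 h at room temperature before a 45 min labeled-GTP incubation.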

[2] = target: KRas G12D/Q61H double mutant (Homo sapiens (Human), UniProt P01116, G12D/Q61H); settings: for inhibition at 20 µM: 20 μM compound
KRas G12D/Q61H double mutant, sequence (P01116-2 other isoform, or with tags, fused parts or gaps G12D/Q61H): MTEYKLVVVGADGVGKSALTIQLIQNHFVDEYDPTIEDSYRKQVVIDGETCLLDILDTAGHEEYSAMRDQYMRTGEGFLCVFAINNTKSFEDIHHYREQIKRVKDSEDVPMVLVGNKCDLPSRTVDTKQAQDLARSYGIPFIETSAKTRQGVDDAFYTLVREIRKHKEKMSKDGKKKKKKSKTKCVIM
Outline: as §1

[3] = target: KRas Q61H mutant (Homo sapiens (Human), UniProt P01116, Q61H); settings: 20 μM compound
KRas Q61H mutant, sequence (P01116-2 other isoform, or with tags, fused parts or gaps Q61H): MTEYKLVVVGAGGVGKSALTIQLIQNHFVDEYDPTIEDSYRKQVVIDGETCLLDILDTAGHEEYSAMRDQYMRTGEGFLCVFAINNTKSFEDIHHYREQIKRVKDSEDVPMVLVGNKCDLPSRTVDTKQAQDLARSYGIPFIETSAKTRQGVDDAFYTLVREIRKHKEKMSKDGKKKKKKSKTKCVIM
Outline: as §1

[4] = KRas G12C/Q61H double mutant, read-out: % Inhibition at 20 μM of K-Ras mutant and wild-type protein, KRas G12C Q61H
[5] = KRas G12D/Q61H double mutant, read-out: % Inhibition at 20 μM of K-Ras mutant and wild-type protein, KRas G12D Q61H
[6] = KRas Q61H, read-out: % Inhibition at 20 μM of K-Ras mutant and wild-type protein, KRas Q61H
[7] = read-out: % Inhibition at 20 μM KRas G12C Q61H
[8] = read-out: % Inhibition at 20 μM KRas G12D Q61H
[9] = read-out: % Inhibition at 20 μM KRas Q61H

SMILES	inhibition at 20 µM [1, 4]	inhibition at 20 µM [2, 5]	inhibition at 20 µM [3, 6]	inhibition at 20 µM [1, 7]	inhibition at 20 µM [2, 8]	inhibition at 20 µM [3, 9]	IC50 ([2]; serial dilution, read-out: KRas G12D Q61H (classes E-H, IC50))
COC(=O)c1c(C)sc2nc(-c3ccccn3)nc(N)c12 [drawing 3485]	25 to 50%	51 to 75%	25 to 50%	–	–	–	–
COc1ccc(CCNC(=O)c2csc3nc(-c4ccccn4)nc(N4CCS(=O)(=O)CC4)c23)cn1 [drawing 2853]	–	–	–	25 to 50%	25 to 50%	25 to 50%	–
Oc1nc(-c2ccccn2)nc2cc(-c3cccc(Br)c3)sc12 [drawing 3564]	1 to 25%	25 to 50%	25 to 50%	–	–	–	–
Oc1nc(-c2ccccn2)nc2c(-c3ccc(C4CCC4)cc3)csc12 [drawing 2865]	–	–	–	51 to 75%	51 to 75%	51 to 75%	–
COC(=O)c1c(C)sc2c(N)nc(-c3ccccn3)nc12 [drawing 3499]	51 to 75%	51 to 75%	76 to 100%	–	–	–	–
Cc1cc(OC(F)F)ccc1-c1csc2c(O)nc(-c3ccccn3)nc12 [drawing 2878]	–	–	–	25 to 50%	25 to 50%	25 to 50%	–
COc1cccc(CC2CN(C(=O)c3csc4c(O)nc(-c5ccccn5)nc34)CCN2)c1 (stereo not shown) [drawing 2830]	–	–	–	51 to 75%	51 to 75%	51 to 75%	–
CC(c1ccccc1)N1CCN(C(=O)c2csc3c(O)nc(-c4ccccn4)nc23)CC1 (stereo not shown) [drawing 2804]	–	–	–	51 to 75%	51 to 75%	76 to 100%	11 to 30 µM
CC(C)c1nn(C)cc1-c1csc2c(O)nc(-c3ccccn3)nc12 [drawing 3501]	51 to 75%	51 to 75%	51 to 75%	–	–	–	–
COC(=O)c1nc(-c2ccccn2)nc(O)c1O [drawing 3547]	76 to 100%	51 to 75%	51 to 75%	–	–	–	–
N#Cc1cccc(CCNC(=O)c2csc3nc(-c4ccccn4)nc(N4CCOCC4)c23)c1 [drawing 2787]	–	–	–	25 to 50%	1 to 25%	25 to 50%	–
O=C(c1csc2c(O)nc(-c3ccccn3)nc12)N1CCN(Cc2ccc(O)c(Cl)c2)CC1 [drawing 2765]	–	–	–	76 to 100%	25 to 50%	76 to 100%	–
COC(=O)c1c(C)sc2c(O)nc(-c3ccccn3)nc12 [drawing 3473]	51 to 75%	51 to 75%	51 to 75%	–	–	–	–
COc1cc(N2CCN(C(=O)c3csc4c(O)nc(-c5ccccn5)nc34)CC2)cc(OC)c1OC [drawing 2758]	–	–	–	1 to 25%	0%	25 to 50%	–
O=C(c1cc2nc(-c3ccccn3)nc(O)c2s1)N1CCOC(c2ccccc2)C1 (stereo not shown) [drawing 2842]	–	–	–	51 to 75%	51 to 75%	76 to 100%	–
CC(C)(C(=O)Nc1nc(-c2ccccn2)nc2sccc12)c1ccc(C#N)cc1 [drawing 2752]	–	–	–	1 to 25%	0%	1 to 25%	–
Oc1nc(-c2ccccn2)nc2c(-c3cncc(C(F)(F)F)c3)csc12 [drawing 3466]	0%	1 to 25%	1 to 25%	–	–	–	–
COc1nc(-c2ccccn2)nc2c(C3CCCCC3)csc12 [drawing 3479]	0%	1 to 25%	1 to 25%	–	–	–	–
O=C(c1csc2c(O)nc(-c3ccccn3)nc12)N1CCN(c2ccc(F)cc2F)CC1 [drawing 2760]	–	–	–	25 to 50%	51 to 75%	25 to 50%	–
COc1ccnc(-c2nc(O)c3c(Br)csc3n2)c1 [drawing 2742]	–	–	–	1 to 25%	25 to 50%	25 to 50%	–
CC(C)(C)c1ccc(-c2csc3c(O)nc(-c4ccccn4)nc23)cc1 [drawing 2847]	–	–	–	51 to 75%	51 to 75%	51 to 75%	–

SMILES	inhibition at 20 µM [1, 4]	inhibition at 20 µM [2, 5]	inhibition at 20 µM [3, 6]	inhibition at 20 µM [1, 7]	inhibition at 20 µM [2, 8]	inhibition at 20 µM [3, 9]	IC50 ([2]; serial dilution, read-out: KRas G12D Q61H (classes E-H, IC50))
Oc1nc(-c2ccccn2)nc2c(-c3cncc(C(F)F)c3)csc12 [drawing 3507]	1 to 25%	1 to 25%	1 to 25%	–	–	–	–
Cc1ccc(-c2csc3c(O)nc(-c4ccccn4)nc23)cc1 [drawing 3560]	1 to 25%	1 to 25%	1 to 25%	–	–	–	–
Oc1nc(-c2ccccn2)nc2c(-c3ccccc3OC3CCCCC3)csc12 [drawing 2866]	–	–	–	51 to 75%	51 to 75%	51 to 75%	–
Cc1ccccc1N1CCN(C(=O)c2csc3c(O)nc(-c4ccccn4)nc23)CC1 [drawing 2723]	–	–	–	51 to 75%	25 to 50%	51 to 75%	–
O=C(NCCc1ccnc(O)n1)c1csc2nc(-c3ccccn3)nc(N3CCOCC3)c12 [drawing 2898]	–	–	–	51 to 75%	1 to 25%	51 to 75%	–
COCCNc1nc(-c2ccccn2)nc(-c2cccc(OCCN(C)C)c2)c1Oc1ccccc1 [drawing 3529]	1 to 25%	1 to 25%	1 to 25%	–	–	–	–
COc1ccc(-c2cc3nc(-c4ccccn4)nc(O)c3s2)cc1 [drawing 3563]	1 to 25%	1 to 25%	1 to 25%	–	–	–	–
Oc1nc(-c2ccccn2)nc2c(CC3CCNCC3)csc12 [drawing 3486]	51 to 75%	51 to 75%	51 to 75%	–	–	–	–
COc1ccnc(-c2nc(O)c3c(C(F)(F)F)csc3n2)c1 [drawing 2833]	–	–	–	25 to 50%	25 to 50%	25 to 50%	–
Cc1sc2nc(-c3ccccn3)nc(N)c2c1Br [drawing 3484]	25 to 50%	25 to 50%	25 to 50%	–	–	–	–
CNS(=O)(=O)CCCNC(=O)c1csc2nc(-c3ccccn3)nc(N3CCOCC3)c12 [drawing 2791]	–	–	–	25 to 50%	1 to 25%	25 to 50%	–
COc1cnc(CN)[nH]c1=O [drawing 2801]	–	–	–	1 to 25%	25 to 50%	25 to 50%	–
Nc1nc(-c2ccccn2)nc2c(Br)csc12 [drawing 2892]	–	–	–	1 to 25%	25 to 50%	25 to 50%	–
Cc1sc2c(O)nc(-c3ccccn3)nc2c1C(=O)O [drawing 3482]	25 to 50%	25 to 50%	25 to 50%	–	–	–	–
O=C(c1csc2c(O)nc(-c3ccccn3)nc12)N1CCNC(Cc2ccccc2)C1 (stereo not shown) [drawing 2778]	–	–	–	51 to 75%	25 to 50%	51 to 75%	–
O=C(c1csc2c(O)nc(-c3ccccn3)nc12)N1CCN(c2cccc(F)c2)CC1 [drawing 2753]	–	–	–	51 to 75%	25 to 50%	76 to 100%	–
COc1ccc(N2CCN(C(=O)c3csc4c(O)nc(-c5ccccn5)nc34)CC2)cc1O [drawing 2802]	–	–	–	51 to 75%	1 to 25%	51 to 75%	–
CC(C)(C(=O)Nc1ccnc(-c2ccccn2)n1)c1ccc(C#N)cc1 [drawing 2751]	–	–	–	51 to 75%	1 to 25%	51 to 75%	–
O=C(NCCc1cccnc1)c1cc2nc(-c3ccccn3)nc(O)c2s1 [drawing 2843]	–	–	–	51 to 75%	25 to 50%	51 to 75%	–
COc1ccc(C2CN(C(=O)c3csc4c(O)nc(-c5ccccn5)nc34)CCO2)cc1 (stereo not shown) [drawing 2768]	–	–	–	25 to 50%	25 to 50%	25 to 50%	–
